Experimental data reported in patent publication US20090062251A1, “Novel Compounds 002” (ASTRAZENECA AB, priority 2007, published 2009).

Each compound was assayed against T1, Human CB1 receptor (hCB1) (Homo sapiens, UniProt P21554) (assay: hCB1 receptor binding (3H-CP55,940 displacement)). Conditions: hCB1 membranes, Ki=IC50/(1+[rad]/Kd).
T1 construct: purchased Receptor Biology
Protocol: hCB1 and hCB2 Receptor Binding
Human CB1 receptor from Receptor Biology (hCB1) or human CB2 receptor from BioSignal (hCB2) membranes are thawed at 37° C., passed 3 times through a 25-gauge blunt-end needle, diluted in the cannabinoid binding buffer (50 mM Tris, 2.5 mM EDTA, 5 mM MgCl2, and 0.5 mg/mL BSA fatty acid free, pH 7.4) and aliquots containing the appropriate amount of protein are distributed in 96-well plates. […] The total and non-specific binding are determined in the absence and presence of 0.2 μM of HU210 respectively. The plates are vortexed and incubated for 60 minutes at room temperature, filtered through Unifilters GF/B (presoaked in 0.1% polyethyleneimine) with the Tomtec or Packard harvester using 3 mL of wash buffer (50 mM Tris, 5 mM MgCl2, 0.5 mg BSA pH 7.0). The filters are dried for 1 hour at 55° C. The radioactivity (cpm) is counted in a TopCount (Packard) after adding 65 μl/well of MS-20 scintillation liquid.
Based on the above assays, the dissociation constant (Ki) for a particular compound of the invention towards a particular receptor is determined using the following equation:
[rad] is a standard or reference radioactive ligand concentration at that moment; and
Kd is the dissociation constant of the radioactive ligand towards the particular receptor.

T1 sequence (P21554 whole entry): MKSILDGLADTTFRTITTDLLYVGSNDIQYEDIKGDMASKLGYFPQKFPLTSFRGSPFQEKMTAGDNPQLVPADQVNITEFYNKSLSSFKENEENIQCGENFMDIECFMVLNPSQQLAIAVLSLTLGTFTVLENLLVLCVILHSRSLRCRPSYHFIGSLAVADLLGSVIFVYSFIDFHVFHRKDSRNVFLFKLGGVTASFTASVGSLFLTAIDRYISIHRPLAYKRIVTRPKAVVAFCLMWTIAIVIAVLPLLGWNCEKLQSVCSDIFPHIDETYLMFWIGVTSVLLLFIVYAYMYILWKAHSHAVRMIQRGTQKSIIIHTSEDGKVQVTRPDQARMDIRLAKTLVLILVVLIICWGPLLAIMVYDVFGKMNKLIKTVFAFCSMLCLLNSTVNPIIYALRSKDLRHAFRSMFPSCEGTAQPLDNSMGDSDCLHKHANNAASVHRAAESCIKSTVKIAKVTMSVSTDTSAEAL

SMILES	Ki [nM]
C[C@@H](C(=O)NC1CC1)N(C)C(=O)c1ccc2c(c1)c1c(n2C)CCC(C2CCOCC2)C1 (stereo partly drawn) [N-[(1S)-1-(cyclopropylcarbamoyl)ethyl]-N,9-dimethyl-6-(oxan-4-yl)-5,6,7,8-tetrahydrocarbazole-3-carboxamide]	> 3530
Cn1c2c(c3cc(C(=O)NCCCC(=O)NC4CC4)ccc31)CC(C1CCOCC1)CC2 (stereo not shown) [N-[3-(cyclopropylcarbamoyl)propyl]-9-methyl-6-(oxan-4-yl)-5,6,7,8-tetrahydrocarbazole-3-carboxamide]	1440
CCN(CC(=O)NC1(C#N)CC1)C(=O)c1ccc2c(c1)c1c(n2C)CCC(C2CCOCC2)C1 (stereo not shown) [N-[(1-cyanocyclopropyl)carbamoylmethyl]-N-ethyl-9-methyl-6-(oxan-4-yl)-5,6,7,8-tetrahydrocarbazole-3-carboxamide]	> 1170
CN(CCC(=O)NC1CC1)C(=O)c1ccc2c(c1)c1c(n2C)CCC(C2CCOCC2)C1 (stereo not shown) [N-[2-(cyclopropylcarbamoyl)ethyl]-N,9-dimethyl-6-(oxan-4-yl)-5,6,7,8-tetrahydrocarbazole-3-carboxamide]	655
CCN(CC(=O)NCC#N)C(=O)c1ccc2c(c1)c1c(n2C)CCC(C2CCOCC2)C1 (stereo not shown) [N-(cyanomethylcarbamoylmethyl)-N-ethyl-9-methyl-6-(oxan-4-yl)-5,6,7,8-tetrahydrocarbazole-3-carboxamide]	333
C[C@@H](C(=O)NCCF)N(C)C(=O)c1ccc2c(c1)c1c(n2C)CCC(C2CCOCC2)C1 (stereo partly drawn) [N-[(1S)-1-(2-fluoroethylcarbamoyl)ethyl]-N,9-dimethyl-6-(oxan-4-yl)-5,6,7,8-tetrahydrocarbazole-3-carboxamide]	> 1400
CNCCN(C)C(=O)c1ccc2c(c1)c1c(n2C)CCC(C2CCOCC2)C1 (stereo not shown) [N,9-dimethyl-N-(2-methylaminoethyl)-6-(oxan-4-yl)-5,6,7,8-tetrahydrocarbazole-3-carboxamide]	> 8720
Cn1c2c(c3cc(C(=O)NCCF)ccc31)CC(C1CCOCC1)CC2 (stereo not shown) [N-(2-fluoroethyl)-9-methyl-6-(oxan-4-yl)-5,6,7,8-tetrahydrocarbazole-3-carboxamide]	659
CN(C(=O)c1ccc2c(c1)c1c(n2C)CCC(C2CCOCC2)C1)C1(C(=O)NC2CC2)CC1 (stereo not shown) [N-[1-(cyclopropylcarbamoyl)cyclopropyl]-N,9-dimethyl-6-(oxan-4-yl)-5,6,7,8-tetrahydrocarbazole-3-carboxamide]	371
Cn1c2c(c3cc(C(=O)N4CC(CC(=O)NC5CC5)C4)ccc31)CC(C1CCOCC1)CC2 (stereo not shown) [N-cyclopropyl-2-[1-[9-methyl-6-(oxan-4-yl)5,6,7,8-tetrahydrocarbazole-3-carbonyl]azetidin-3-yl]acetamide]	2080
